Measured values reported in article PMC11882969 (Nature Communications, 2025).
Where “and” joins values, the source holds several entries; their conditions need not be identical. Equal entries are not always repeated.

Key:
Type in all cases: cell-based
[1] = molecular target: panel of 320 non-olfactory GPCRs (Homo sapiens, UniProt O00398)
[2] = molecular target: panel of 320 non-olfactory GPCRs (Homo sapiens, UniProt P08913)
[3] = molecular target: panel of 320 non-olfactory GPCRs (Homo sapiens, UniProt Q8IZF5)
[4] = molecular target: panel of 320 non-olfactory GPCRs (Homo sapiens, UniProt P18825)
[5] = molecular target: panel of 320 non-olfactory GPCRs (Homo sapiens, UniProt Q9UPC5)
[6] = molecular target: panel of 320 non-olfactory GPCRs (Homo sapiens, UniProt Q7Z601)
panel of 320 non-olfactory GPCRs (Homo sapiens, UniProt Q7Z601), sequence (Q7Z601 whole entry): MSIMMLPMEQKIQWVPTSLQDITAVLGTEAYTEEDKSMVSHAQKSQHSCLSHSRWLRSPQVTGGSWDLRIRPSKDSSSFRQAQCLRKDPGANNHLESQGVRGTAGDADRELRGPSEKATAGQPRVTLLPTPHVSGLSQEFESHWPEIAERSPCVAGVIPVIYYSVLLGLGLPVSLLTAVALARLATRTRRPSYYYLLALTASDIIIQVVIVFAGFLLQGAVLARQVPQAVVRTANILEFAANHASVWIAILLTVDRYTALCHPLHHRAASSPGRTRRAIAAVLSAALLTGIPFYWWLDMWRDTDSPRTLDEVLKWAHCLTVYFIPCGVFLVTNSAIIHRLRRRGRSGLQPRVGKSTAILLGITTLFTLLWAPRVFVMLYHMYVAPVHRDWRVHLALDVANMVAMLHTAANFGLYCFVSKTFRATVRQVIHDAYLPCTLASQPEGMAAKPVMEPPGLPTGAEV

[7] = molecular target: panel of 320 non-olfactory GPCRs (Homo sapiens, UniProt P41180)
panel of 320 non-olfactory GPCRs (Homo sapiens, UniProt P41180), sequence (P41180 20-1078): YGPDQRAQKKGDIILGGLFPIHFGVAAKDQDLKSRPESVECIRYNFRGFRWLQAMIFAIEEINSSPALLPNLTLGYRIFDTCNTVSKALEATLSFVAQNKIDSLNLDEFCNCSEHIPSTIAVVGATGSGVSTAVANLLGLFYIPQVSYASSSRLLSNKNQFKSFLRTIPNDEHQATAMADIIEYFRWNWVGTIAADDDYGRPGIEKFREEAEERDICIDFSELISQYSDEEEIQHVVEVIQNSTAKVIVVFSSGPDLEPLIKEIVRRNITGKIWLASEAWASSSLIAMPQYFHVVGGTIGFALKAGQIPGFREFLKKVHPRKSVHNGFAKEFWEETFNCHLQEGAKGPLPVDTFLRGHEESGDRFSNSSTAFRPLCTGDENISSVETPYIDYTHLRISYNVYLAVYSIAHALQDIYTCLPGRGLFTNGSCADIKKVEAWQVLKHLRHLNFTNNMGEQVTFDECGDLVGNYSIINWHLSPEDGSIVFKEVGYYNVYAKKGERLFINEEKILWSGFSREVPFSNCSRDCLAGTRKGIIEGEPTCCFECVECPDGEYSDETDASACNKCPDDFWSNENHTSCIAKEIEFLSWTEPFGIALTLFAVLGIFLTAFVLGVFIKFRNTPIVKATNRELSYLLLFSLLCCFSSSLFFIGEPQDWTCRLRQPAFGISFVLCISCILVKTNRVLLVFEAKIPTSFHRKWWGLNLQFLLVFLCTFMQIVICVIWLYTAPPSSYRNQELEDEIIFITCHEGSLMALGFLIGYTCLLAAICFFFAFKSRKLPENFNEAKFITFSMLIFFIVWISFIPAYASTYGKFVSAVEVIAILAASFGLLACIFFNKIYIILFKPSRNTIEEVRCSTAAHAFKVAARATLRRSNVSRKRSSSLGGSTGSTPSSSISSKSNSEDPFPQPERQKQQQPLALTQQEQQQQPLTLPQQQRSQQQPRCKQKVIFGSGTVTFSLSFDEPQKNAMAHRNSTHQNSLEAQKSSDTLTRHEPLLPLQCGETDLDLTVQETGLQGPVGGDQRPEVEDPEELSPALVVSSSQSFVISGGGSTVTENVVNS

[8] = molecular target: panel of 320 non-olfactory GPCRs (Homo sapiens, UniProt Q99705)
[9] = molecular target: panel of 320 non-olfactory GPCRs (Homo sapiens, UniProt O14626)
[10] = molecular target: panel of 320 non-olfactory GPCRs (Homo sapiens, UniProt P34998)
[11] = molecular target: panel of 320 non-olfactory GPCRs (Homo sapiens, UniProt P51681)
[12] = molecular target: panel of 320 non-olfactory GPCRs (Homo sapiens, UniProt P50406)
[13] = molecular target: panel of 320 non-olfactory GPCRs (Homo sapiens, UniProt P41587)
[14] = molecular target: panel of 320 non-olfactory GPCRs (Homo sapiens, UniProt O14842)
panel of 320 non-olfactory GPCRs (Homo sapiens, UniProt O14842), sequence (O14842 whole entry): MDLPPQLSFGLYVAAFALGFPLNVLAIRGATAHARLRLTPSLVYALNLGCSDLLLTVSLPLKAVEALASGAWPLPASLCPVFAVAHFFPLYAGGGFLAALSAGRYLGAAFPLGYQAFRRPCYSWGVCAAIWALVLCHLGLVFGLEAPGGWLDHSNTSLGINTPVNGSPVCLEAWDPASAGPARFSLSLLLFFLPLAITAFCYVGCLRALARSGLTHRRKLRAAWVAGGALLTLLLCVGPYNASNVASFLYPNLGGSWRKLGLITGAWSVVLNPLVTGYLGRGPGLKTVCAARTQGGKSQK

[15] = molecular target: panel of 320 non-olfactory GPCRs (Homo sapiens, UniProt O00421)
[16] = molecular target: panel of 320 non-olfactory GPCRs (Homo sapiens, UniProt P29371)
panel of 320 non-olfactory GPCRs (Homo sapiens, UniProt P29371), sequence (P29371 whole entry): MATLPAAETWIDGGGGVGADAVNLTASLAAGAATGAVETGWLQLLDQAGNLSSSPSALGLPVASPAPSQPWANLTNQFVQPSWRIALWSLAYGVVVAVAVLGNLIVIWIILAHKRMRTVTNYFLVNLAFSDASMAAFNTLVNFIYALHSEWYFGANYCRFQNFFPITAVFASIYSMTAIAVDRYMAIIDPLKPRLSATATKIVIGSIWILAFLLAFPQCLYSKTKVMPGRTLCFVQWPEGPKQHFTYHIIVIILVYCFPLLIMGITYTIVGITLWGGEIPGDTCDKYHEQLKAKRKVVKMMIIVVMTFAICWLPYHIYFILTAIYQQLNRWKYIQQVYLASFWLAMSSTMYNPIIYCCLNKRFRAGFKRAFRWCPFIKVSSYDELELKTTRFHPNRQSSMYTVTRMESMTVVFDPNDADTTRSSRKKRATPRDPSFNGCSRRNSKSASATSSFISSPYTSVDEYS

[17] = molecular target: panel of 320 non-olfactory GPCRs (Homo sapiens, UniProt Q96LB2)
panel of 320 non-olfactory GPCRs (Homo sapiens, UniProt Q96LB2), sequence (Q96LB2 whole entry): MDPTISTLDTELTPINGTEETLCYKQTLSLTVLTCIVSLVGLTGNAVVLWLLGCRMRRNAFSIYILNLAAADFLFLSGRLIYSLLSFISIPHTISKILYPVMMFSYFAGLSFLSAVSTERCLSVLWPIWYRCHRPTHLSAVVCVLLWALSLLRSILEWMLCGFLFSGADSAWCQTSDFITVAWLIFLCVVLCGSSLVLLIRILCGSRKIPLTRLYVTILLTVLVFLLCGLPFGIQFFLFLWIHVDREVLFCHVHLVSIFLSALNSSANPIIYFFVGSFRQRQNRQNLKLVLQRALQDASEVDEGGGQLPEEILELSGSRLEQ

[18] = molecular target: panel of 320 non-olfactory GPCRs (Homo sapiens, UniProt Q96P69)
[19] = molecular target: panel of 320 non-olfactory GPCRs (Homo sapiens, UniProt P47211)
panel of 320 non-olfactory GPCRs (Homo sapiens, UniProt P47211), sequence (P47211 whole entry): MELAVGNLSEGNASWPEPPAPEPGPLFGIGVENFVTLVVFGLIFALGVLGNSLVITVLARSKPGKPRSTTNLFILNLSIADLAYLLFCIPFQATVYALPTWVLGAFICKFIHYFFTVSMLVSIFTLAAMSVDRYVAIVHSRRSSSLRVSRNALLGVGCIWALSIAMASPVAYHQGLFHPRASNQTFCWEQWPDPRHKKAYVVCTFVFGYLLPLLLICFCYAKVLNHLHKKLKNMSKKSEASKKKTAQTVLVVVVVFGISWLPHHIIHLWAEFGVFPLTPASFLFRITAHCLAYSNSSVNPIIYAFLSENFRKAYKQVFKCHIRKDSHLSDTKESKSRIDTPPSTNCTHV

[20] = molecular target: panel of 320 non-olfactory GPCRs (Homo sapiens, UniProt Q7Z602)
[21] = molecular target: panel of 320 non-olfactory GPCRs (Homo sapiens, UniProt Q96PE1)
[22] = molecular target: panel of 320 non-olfactory GPCRs (Homo sapiens, UniProt Q8NFN8)
panel of 320 non-olfactory GPCRs (Homo sapiens, UniProt Q8NFN8), sequence (Q8NFN8 whole entry): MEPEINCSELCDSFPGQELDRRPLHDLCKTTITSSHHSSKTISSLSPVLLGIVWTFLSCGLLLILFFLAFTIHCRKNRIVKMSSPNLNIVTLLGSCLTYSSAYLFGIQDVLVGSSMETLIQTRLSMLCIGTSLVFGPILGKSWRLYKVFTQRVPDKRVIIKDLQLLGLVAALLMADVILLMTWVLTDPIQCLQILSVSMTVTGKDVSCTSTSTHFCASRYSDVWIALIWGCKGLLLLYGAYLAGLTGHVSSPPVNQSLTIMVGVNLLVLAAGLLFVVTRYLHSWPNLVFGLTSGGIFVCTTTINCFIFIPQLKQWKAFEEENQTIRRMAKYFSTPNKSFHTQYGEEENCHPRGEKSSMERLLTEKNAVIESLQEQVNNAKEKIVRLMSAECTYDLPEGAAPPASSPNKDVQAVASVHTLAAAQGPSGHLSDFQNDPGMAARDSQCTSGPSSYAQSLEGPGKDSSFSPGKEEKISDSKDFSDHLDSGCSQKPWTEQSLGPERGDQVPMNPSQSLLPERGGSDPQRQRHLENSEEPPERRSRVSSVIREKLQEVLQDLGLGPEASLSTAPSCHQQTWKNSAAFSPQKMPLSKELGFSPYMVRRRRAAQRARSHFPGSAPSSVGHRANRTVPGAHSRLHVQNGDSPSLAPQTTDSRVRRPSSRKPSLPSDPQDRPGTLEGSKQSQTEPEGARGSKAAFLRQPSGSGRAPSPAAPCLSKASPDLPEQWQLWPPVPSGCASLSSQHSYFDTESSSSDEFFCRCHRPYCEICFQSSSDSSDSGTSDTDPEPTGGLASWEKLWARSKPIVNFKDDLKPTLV

[23] = molecular target: panel of 320 non-olfactory GPCRs (Homo sapiens, UniProt Q96AM1)
panel of 320 non-olfactory GPCRs (Homo sapiens, UniProt Q96AM1), sequence (Q96AM1 whole entry): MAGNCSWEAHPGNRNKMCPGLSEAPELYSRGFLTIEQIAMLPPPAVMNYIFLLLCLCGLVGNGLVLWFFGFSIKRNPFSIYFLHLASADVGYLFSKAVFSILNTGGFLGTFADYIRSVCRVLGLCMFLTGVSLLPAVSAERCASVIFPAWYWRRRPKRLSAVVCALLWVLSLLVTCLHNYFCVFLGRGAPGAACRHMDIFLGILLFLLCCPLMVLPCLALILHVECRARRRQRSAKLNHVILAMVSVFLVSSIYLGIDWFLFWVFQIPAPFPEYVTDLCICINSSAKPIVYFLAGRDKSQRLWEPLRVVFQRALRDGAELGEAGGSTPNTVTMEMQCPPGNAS

[24] = molecular target: panel of 320 non-olfactory GPCRs (Homo sapiens, UniProt P47900)
[25] = molecular target: panel of 320 non-olfactory GPCRs (Homo sapiens, UniProt P30559)
[26] = molecular target: panel of 320 non-olfactory GPCRs (Homo sapiens, UniProt Q5NUL3)
[27] = molecular target: panel of 320 non-olfactory GPCRs (Homo sapiens, UniProt Q8IZF4)
[28] = molecular target: panel of 320 non-olfactory GPCRs (Homo sapiens, UniProt Q13639)
[29] = molecular target: panel of 320 non-olfactory GPCRs (Homo sapiens, UniProt Q15722)
panel of 320 non-olfactory GPCRs (Homo sapiens, UniProt Q15722), sequence (Q15722 whole entry): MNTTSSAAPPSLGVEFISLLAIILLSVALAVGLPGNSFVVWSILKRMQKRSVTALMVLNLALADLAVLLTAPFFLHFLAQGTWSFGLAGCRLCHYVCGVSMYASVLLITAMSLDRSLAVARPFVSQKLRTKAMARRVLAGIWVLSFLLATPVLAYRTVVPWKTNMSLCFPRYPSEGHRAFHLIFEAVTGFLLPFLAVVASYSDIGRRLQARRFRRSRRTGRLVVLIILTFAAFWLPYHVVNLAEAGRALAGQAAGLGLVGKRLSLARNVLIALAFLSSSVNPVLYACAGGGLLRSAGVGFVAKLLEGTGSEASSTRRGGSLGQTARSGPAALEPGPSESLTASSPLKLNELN

[30] = molecular target: panel of 320 non-olfactory GPCRs (Homo sapiens, UniProt Q9HB89)
[31] = molecular target: panel of 320 non-olfactory GPCRs (Homo sapiens, UniProt Q9Y2T5)
[32] = molecular target: panel of 320 non-olfactory GPCRs (Homo sapiens, UniProt Q9NZH0)
[33] = molecular target: panel of 320 non-olfactory GPCRs (Homo sapiens, UniProt Q8TDU6)
[34] = molecular target: panel of 320 non-olfactory GPCRs (Homo sapiens, UniProt P24530)
[35] = molecular target: panel of 320 non-olfactory GPCRs (Homo sapiens, UniProt P28336)
[36] = molecular target: panel of 320 non-olfactory GPCRs (Homo sapiens, UniProt P25021)
[37] = molecular target: panel of 320 non-olfactory GPCRs (Homo sapiens, UniProt P47872)

panel of 320 non-olfactory GPCRs (Homo sapiens, UniProt P08913), sequence (P08913 whole entry): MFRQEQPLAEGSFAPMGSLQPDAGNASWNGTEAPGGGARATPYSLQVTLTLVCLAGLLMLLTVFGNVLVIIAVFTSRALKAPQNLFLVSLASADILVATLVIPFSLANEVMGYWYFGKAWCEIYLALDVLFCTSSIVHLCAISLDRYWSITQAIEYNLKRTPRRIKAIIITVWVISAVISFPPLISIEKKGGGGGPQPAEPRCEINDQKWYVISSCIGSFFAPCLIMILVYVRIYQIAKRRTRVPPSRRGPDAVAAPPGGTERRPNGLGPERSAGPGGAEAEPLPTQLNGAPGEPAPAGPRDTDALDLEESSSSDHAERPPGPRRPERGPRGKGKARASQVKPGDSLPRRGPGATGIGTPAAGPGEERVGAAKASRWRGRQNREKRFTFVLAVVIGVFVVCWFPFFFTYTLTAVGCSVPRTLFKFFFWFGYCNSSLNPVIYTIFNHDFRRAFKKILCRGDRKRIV

Structure (SMILES): COC(=O)[C@@](C)(NC(=O)c1cc(C)n(-c2cccc(C(F)(F)F)c2)n1)c1cccs1 [‘1350]
- Fold of Basal RLU [1]: 1.1 and 1 and 1.2
- Fold of Basal RLU [2]: 1.8 fold and 1.4 fold and 1.6 fold and 1.2 fold
- Fold of Basal RLU [3]: 1.3 and 0.8 and 1.2
- Fold of Basal RLU [4]: 0.7 and 1.2 and 0.6
- Fold of Basal RLU [5]: 0.7 fold and 1 fold and 1.1 fold and 1.4 fold
- Fold of Basal RLU [6]: 1.2 and 0.9 and 1
- Fold of Basal RLU [7]: 0.4 and 0.7 and 0.8
- Fold of Basal RLU [8]: 1.3 and 1.1 and 0.7
- Fold of Basal RLU [9]: 1.4 and 1 and 1.5 and 0.8
- Fold of Basal RLU [10]: 0.7 and 0.9
- Fold of Basal RLU [11]: 0.9 and 0.6 and 1.1 and 0.7
- Fold of Basal RLU [12]: 1.2 and 1 and 1.1
- Fold of Basal RLU [13]: 0.9 and 1 and 0.7 and 1.3
- Fold of Basal RLU [14]: 1.4 and 0.7 and 1.1 and 0.8
- Fold of Basal RLU [15]: 1.8 and 1.2 and 1 and 0.9
- Fold of Basal RLU [16]: 1.6 fold and 1.3 fold and 1.4 fold
- Fold of Basal RLU [17]: 0.9 and 0.7 and 0.8 and 1.1
- Fold of Basal RLU [18]: 0.8 and 1 and 1.1 and 1.4

Structure (SMILES): Cc1cc(C(=O)NC(C)(c2ccco2)c2ccco2)nn1-c1cccc(C(F)(F)F)c1 [‘4936]
- Fold of Basal RLU [19]: 1.3 and 1 and 0.7 and 1.4
- Fold of Basal RLU [20]: 1.2 fold and 1.4 fold and 0.8 fold
- Fold of Basal RLU [21]: 0.6 fold and 0.5 fold and 0.9 fold and 1 fold
- Fold of Basal RLU [22]: 0.8 and 1.2 and 0.6
- Fold of Basal RLU [23]: 0.6 fold and 0.8 fold and 0.9 fold
- Fold of Basal RLU [24]: 1.1 fold and 0.9 fold and 0.7 fold and 1 fold
- Fold of Basal RLU [25]: 0.9 and 0.8 and 1
- Fold of Basal RLU [26]: 0.3 and 0.2
- Fold of Basal RLU [27]: 0.9 and 1 and 0.8 and 0.6
- Fold of Basal RLU [28]: 1 fold and 1.6 fold and 0.9 fold
- Fold of Basal RLU [29]: 0.6 and 1 and 0.9 and 0.8
- Fold of Basal RLU [30]: 0.9 and 1.5
- Fold of Basal RLU [31]: 1.8 fold and 1.9 fold and 2.1 fold
- Fold of Basal RLU [32]: 0.7 and 0.6 and 0.8
- Fold of Basal RLU [33]: 1.4 fold and 1.5 fold and 1.7 fold
- Fold of Basal RLU [34]: 0.9 and 0.7 and 0.5
- Fold of Basal RLU [35]: 2.2 and 1.8 and 1.2 and 1.3
- Fold of Basal RLU [36]: 1 and 1.2 and 1.1 and 0.6
- Fold of Basal RLU [37]: 1.6 and 1.3
